Measured values published in patent publication US12509460B2 (Skyhawk Therapeutics, Inc., priority 2019, dated 2025).
Like-named read-outs stand apart in the source and are kept apart here.

Experiments:
[1] = tested on: mHTT protein in GM04724 (CAG 70/20) Huntington's disease patient lymphoblast cells; assay: mHTT protein assay, 2B7-MW1 assay via Mesoscale Discovery (MSD); assay type: cell-based, human
Method: Example A10: mHTT Protein Assay
Compounds are tested on GM04724 (CAG 70/20) Huntington's disease patient lymphoblast cells at doses ranging from 10 μM to 0.6 nM. 4,500 cells/well are seeded in 384 well plates. One plate replica is carried out for parallel viability testing by CellTiter Glo (CTG). Compounds are incubated for 48 hours. mHTT protein levels are assessed by the 2B7-MW1 assay via Mesoscale Discovery (MSD) as previously reported (Macdonald et al., 2014). The antibody pair is comprised of previously characterized monoclonals (2B7 and MW1) interrogating two regions for HTT conformation and biological properties: the N, 17 domain and the polyQ domain (Baldo et al., 2012; Ko et., 2001). 2B7-MW1 is […] specific levels of HTT at the time of treatment. 2B7-MW1 is dependent on polyQ expansion (e.g., the higher the expansion the higher the signal) and on mHTT size (e.g., a similar polyQ will give higher signal with smaller HTT size). The viability readout is carried out by CTG according to the manufacturer's instructions.

[2] = tested on: MDR1-MDCK cell monolayers; assay: Blood-brain-barrier (BBB) penetration potential via MDCK-MDR1 permeability assay
MDR1 (P-gp) = assay: as above; settings: dog; for Papp A→B at 120 min, 5 μM: MDCK-MDR1, pH 7.4, MDCK-MDR1: Papp A-B; for Papp B→A at 120 min, 5 μM: MDCK-MDR1, pH 7.4, MDCK-MDR1: Papp B-A; for efflux ratio at 120 min, 5 μM: MDCK-MDR1, pH 7.4, MDCK-MDR1: Efflux
MDR1 = assay: as above; settings: dog, MDCK-MDR1, pH 7.4, MDCK-MDR1: Efflux
[3] = tested on: SMN protein in spinal muscular atrophy (SMA) patient fibroblasts (GM03813, Coriell); assay: SMN protein assay, Mesoscale Discovery (MSD); assay type: cell-based, human; settings: read-out: SMN2 protein EC50
Method: Example A12: SMN Protein Assay
Compounds are tested on spinal muscular atrophy (SMA) patient fibroblasts (GM03813, Coriell) at doses ranging from 2.5 μM to 0.6 nM. 7000 cells/well are seeded in 96-well plates. Compounds are incubated for 48 hours and the cells were lysed with 100 μL of lysis buffer. 20 μL of lysate is used for SMN protein measurement by Mesoscale Discovery (MSD) assay developed by PharmOptima (Michigan). A standard curve prepared with SMN protein ranging from 1 μg/ml to 19.5 pg/ml is used in each MSD plate to calculate the absolute SMN protein amount in each sample.

[4] = GM04724 Huntington's disease patient lymphoblasts
[5] = SMA patient fibroblasts GM03813, 48 hours, MSD
[6] = GM04724 (CAG 70/20) Huntington's disease patient lymphoblasts
[7] = SMA patient fibroblasts (GM03813), 48 hours

Row | SMILES | EC50 [1, 4] [nM] | MDCK-MDR1: % Recov A-B ([2]; A-B direction) [%] | MDCK-MDR1: % Recov B-A ([2]; B-A direction) [%] | Papp A→B at 120 min, 5 μM (MDR1 (P-gp); A-B direction) [×10⁻⁶ cm/s] | Papp B→A at 120 min, 5 μM (MDR1 (P-gp); B-A direction) [×10⁻⁶ cm/s] | efflux ratio at 120 min, 5 μM (MDR1; efflux ratio) | EC50 [3, 5] [nM] | EC50 [1, 6] [nM] | MDCK-MDR1: % Recov A-B ([2]; A-B) [%] | MDCK-MDR1: % Recov B-A ([2]; B-A) [%] | efflux ratio at 120 min, 5 μM (MDR1 (P-gp)) | Papp A→B at 120 min, 5 μM (MDR1 (P-gp); A-B) [×10⁻⁶ cm/s] | Papp B→A at 120 min, 5 μM (MDR1 (P-gp); B-A) [×10⁻⁶ cm/s] | EC50 [3, 7] [nM] | efflux ratio at 120 min, 5 μM (MDR1 (P-gp); efflux ratio) | efflux ratio at 120 min, 5 μM (MDR1) | mHTT protein EC50 [1, 4]
1 | Cc1cnc(-c2ccc(-c3ccc(N(C)[C@@H]4C[C@H]5CCC[C@H](N5)[C@@H]4F)nn3)c(O)c2)cn1 [Compound 26A, 2-(6-(((1S,2S,3R,5R)-2-fluoro-9-azabicyclo[3.3.1]nonan-3-yl)(methyl)amino)pyridazin-3-yl)-5-(5-methylpyrazin-2-yl)phenol] | 101 to 500 | 65 | 77 | 2.09 | 43.6 | 21 | 51 to 100 |  |  |  |  |  |  |  |  |  | 
2 | CN(c1ccc(-c2ccc(-c3cnn(C(F)F)c3)cc2O)nn1)[C@H]1C[C@@H]2CCC[C@@H](N2)[C@H]1F [Compound 21B] | 16 to 50 | 39 | 68 | 1.73 | 30.4 | 18 | 0.01 to 15 |  |  |  |  |  |  |  |  |  | 
3 | CN(c1ccc(-c2cc3ccncc3cc2O)nn1)[C@@H]1C[C@H]2CC(F)(F)[C@@H](C1)N2 [Compound 125A, 6-(6-(((1S,3R,5R)-6,6-difluoro-8-azabicyclo[3.2.1]octan-3-yl)(methyl)amino)pyridazin-3-yl)isoquinolin-7-ol] |  |  |  |  |  |  |  | 101 to 500 | 63 | 87 | 3 | 14.1 | 43.3 | 51 to 100 |  |  | 
4 | CN(c1ccc(-c2ccc(-c3cnn(C)c3)cc2O)nn1)[C@H]1C[C@H]2CC(F)(F)[C@H](C1)N2 (single isomer, unassigned) [Compound 3B] | 51 to 100 | 80 | 71 | 16.3 | 22.7 |  | 101 to 500 |  |  |  |  |  |  |  | 1 |  | 
5 | CN(c1ccc(-c2cc3ncn(C)c(=O)c3cc2O)nn1)[C@@H]1C[C@H]2CC[C@@H]([C@@H]1F)N2C [Compound 101A, 7-(6-(((1S,2S,3R,5R)-2-fluoro-8-methyl-8-azabicyclo[3.2.1]octan-3-yl)(methyl)amino)pyridazin-3-yl)-6-hydroxy-3-methylquinazolin-4(3H)-one] |  |  |  |  |  |  |  | 101 to 500 | 101 | 109 |  | 2.81 | 72.6 | 51 to 100 |  | 26 | 
6 | CC(=O)N(C)c1ccc(-c2ccc(N(C)[C@H]3C[C@@H]4CC[C@@H](N4)[C@H]3F)nn2)c(O)c1 [Compound 35B, N-(4-(6-(((1R,2R,3S,5S)-2-fluoro-8-azabicyclo[3.2.1]octan-3-yl)(methyl)amino)pyridazin-3-yl)-3-hydroxyphenyl)-N-methylacetamide] |  | 103 | 99 | 0.23 | 42 | 181 | 0.01 to 15 |  |  |  |  |  |  |  |  |  | E (501 ≤ E ≤ 10.000)
7 | CN(c1ccc(-c2cc3c(=O)n(C)ccc3s2)nn1)[C@@H]1C[C@H]2CC[C@H](N2)[C@@H]1F (single isomer, unassigned) [Compound 68A] | 101 to 500 | 92 | 78 | 0.41 | 45.6 | 111 | 51 to 100 |  |  |  |  |  |  |  |  |  | 
8 | Cc1cnc(-c2ccc(-c3ccc(N(C)[C@@H]4C[C@H]5CC[C@H](N5)[C@@H]4F)nn3)c(O)c2)o1 [Compound 48A, 2-(6-(((1S,2S,3R,5R)-2-fluoro-8-azabicyclo[3.2.1]octan-3-yl)(methyl)amino)pyridazin-3-yl)-5-(5-methyloxazol-2-yl)phenol] | 51 to 100 | 58 | 76 | 3.71 | 29 | 8 | 0.01 to 15 |  |  |  |  |  |  |  |  |  | 
9 | Cc1nc2cc(-c3ccc(N(C)[C@@H]4C[C@H]5CC[C@H](N5)[C@@H]4F)nn3)c(O)cc2o1 [Compound 118A, 5-(6-(((1S,2S,3R,5R)-2-fluoro-8-azabicyclo[3.2.1]octan-3-yl)(methyl)amino)pyridazin-3-yl)-2-methylbenzo[d]oxazol-6-ol] |  |  |  |  |  |  |  | 16 to 50 |  |  |  |  |  |  |  |  | 
10 | COc1cn(-c2ccc(-c3ccc(N(C)[C@H]4C[C@@H]5CC(F)(F)[C@H](C4)N5)nn3)c(O)c2)cn1 [Compound 19B, 2-(6-(((1R,3S,5S)-6,6-difluoro-8-azabicyclo[3.2.1]octan-3-yl)(methyl)amino)pyridazin-3-yl)-5-(4-methoxy-1H-imidazol-1-yl)phenol] |  | 91 | 88 | 12.2 | 63.3 | 5 | 51 to 100 |  |  |  |  |  |  |  |  |  | E (501 ≤ E ≤ 10.000)
11 | CC#Cc1ccc(-c2ccc(N(C)C3CC4CCC(N4)C3F)nn2)c(O)c1 (single isomer, unassigned) [Compound 30B] | 51 to 100 | 38 | 69 | 10.6 | 11 |  | 101 to 500 |  |  |  |  |  |  |  | 1 |  | 
12 | CN(c1ccc(-c2cc3cncnc3cc2O)nn1)[C@@H]1C[C@H]2CC[C@H](N2)[C@@H]1F [Compound 75A, 6-(6-(((1S,2S,3R,5R)-2-fluoro-8-azabicyclo[3.2.1]octan-3-yl)(methyl)amino)pyridazin-3-yl)quinazolin-7-ol] | 101 to 500 | 101 | 100 | 2.31 | 50.3 | 22 | 51 to 100 |  |  |  |  |  |  |  |  |  | 
13 | CN(c1ccc(-c2cc(F)c(-c3ccn(C)c(=O)c3)cc2O)nn1)[C@H]1C[C@@H]2CC(F)(F)[C@H](C1)N2 [Compound 22B, 4-(4-(6-(((1R,3S,5S)-6,6-difluoro-8-azabicyclo[3.2.1]octan-3-yl)(methyl)amino)pyridazin-3-yl)-2-fluoro-5-hydroxyphenyl)-1-methylpyridin-2(1H)-one] |  | 88 | 95 | 2.83 | 87.7 | 31 | 51 to 100 |  |  |  |  |  |  |  |  |  | 
14 | Cc1nc2cc(-c3ccc(N(C)[C@H]4C[C@@H]5CC[C@@H](N5)[C@H]4F)nn3)c(O)cc2o1 [Compound 118B, 5-(6-(((1R,2R,3S,5S)-2-fluoro-8-azabicyclo[3.2.1]octan-3-yl)(methyl)amino)pyridazin-3-yl)-2-methylbenzo[d]oxazol-6-ol] |  |  |  |  |  |  |  | 0.01 to 15 |  |  |  |  |  |  |  |  | 
